Common to all, as to type: cell-based
A short description of assay [1]: Inhibition of alkaline phosphatase in mouse 180/TG cells assessed as p-nitrophenyl phosphate hydrolysis by spectrophotometry. Particulars: read-out: I50.
The species named for assay [2] is Mus musculus. Kind of assay: Inhibition of alkaline phosphatase in mouse 180/TG cells assessed as p-nitrophenyl phosphate hydrolysis up to 5 mM by spectrophotometry.
The species entered for assay [3] is Mus musculus. Kind of assay: Inhibition of alkaline phosphatase in mouse 180/TG cells assessed as p-nitrophenyl phosphate hydrolysis up to 1 mM by spectrophotometry.

This is an account of results in ChEMBL document CHEMBL3244162, “Synthesis and biological evaluation of tetramisole analogues as inhibitors of alkaline phosphatase of the 6-thiopurine-resistant tumor sarcoma 180/TG” (J Med Chem, 1979).

Counter-ions that a name gives are not always drawn. Activity calls are given as the source filed them. The rule behind the calls is not given here.

With `c1ccc(C2CN3CCSC3=N2)cc1` (stereo not given) [TETRAMISOLE HYDROCHLORIDE], the IC50 in assay [1] was found to be 45 µM.
As for `c1ccc(C2CN3CCOC3=N2)cc1` (stereo not given), the IC50 in assay [1] was 210 µM.
Regarding `c1ccc(C2CN3CCNC3=N2)cc1` (stereo not given), the inhibition (as a rule, the share of the control response that was lost under treatment) in assay [2] worked out at 15%. In assay [3], the inhibition entry was “inactive”.
For the molecule `c1ccc(-c2cn3c(n2)OCC3)cc1`, the inhibition result in assay [3] was “inactive”.
